These results are taken from ChEMBL document CHEMBL1143414, “Association of saquinavir plasma concentrations with side effects but not with antiretroviral outcome in patients infected with protease inhibitor-susceptible human immunodeficiency virus type 1” (Antimicrob Agents Chemother, 2007).

SMILES strings stand for the structures.

Holding throughout (settings): in vivo
Series [1] is described as follows: Tmax in HIV1 infected human at 100 mg, po administered twice daily. It counts as ADME, organism-based.
Series [2] can be described thus: Apparent elimination half life in HIV1 infected human at 100 mg, po administered twice daily. It is filed as ADME, organism-based.
Series [3] has as its system Homo sapiens. In words: AUC in HIV1 infected human at 100 mg, po administered twice daily. It is filed as ADME, organism-based, Plasma.
For series [4], the system named is Homo sapiens. In words: Tlag in HIV1 infected human at 100 mg, po administered twice daily. It counts as ADME, organism-based.
Series [5] has as its system Homo sapiens. Kind of series: CL/F in HIV1 infected human at 100 mg, po administered twice daily. It counts as ADME, organism-based.
The nature of series [6]: Cmax in HIV1 infected human at 100 mg, po administered twice daily. Details: dose 100 mg, route oral. It counts as ADME, organism-based.
The subject of series [7] is Homo sapiens. Kind of series: Tlag in HIV1 infected human at 1000 mg, po administered twice daily. It counts as ADME, organism-based.
Series [8] has as its system Homo sapiens. Kind of series: AUC in HIV1 infected human at 1000 mg, po administered twice daily. It counts as ADME, organism-based, Plasma.
The nature of series [9]: Apparent elimination half life in HIV1 infected human at 1000 mg, po administered twice daily. It is filed as ADME, organism-based.
Series [10] is described as follows: Cmax in HIV1 infected human at 1000 mg, po administered twice daily. It is filed as ADME, organism-based. Details: dose 1000 mg, route oral.
Series [11] in a line: Tmax in HIV1 infected human at 1000 mg, po administered twice daily. It counts as ADME, organism-based.

`CC(C)c1nc(CN(C)C(=O)N[C@H](C(=O)N[C@@H](Cc2ccccc2)C[C@H](O)[C@H](Cc2ccccc2)NC(=O)OCc2cncs2)C(C)C)cs1` [RITONAVIR]: the time of peak concentration (Tmax) in series [1] was found to be 4 h. The half-life in series [2] was 4.3 h. In series [3], this compound yielded an area under the curve (AUC) of 6399.9 ng·h/mL. The compound further showed a Tlag in [4] of 0.25 h. The compound also displayed a CL/F in [5] of 15.6 L/h. Moreover, in series [6], the Cmax was 880 ng/mL.

`CC(C)(C)NC(=O)[C@@H]1C[C@@H]2CCCC[C@@H]2CN1C[C@@H](O)[C@H](Cc1ccccc1)NC(=O)[C@H](CC(N)=O)NC(=O)c1ccc2ccccc2n1` [SAQUINAVIR]: the Tlag in series [7] was 0 h. Moreover, the AUC in series [8] was determined as 17546.5 ng·h/mL. The half-life in series [9] is 3.7 h. Moreover, the peak concentration (Cmax) in [10] is 2620 ng/mL. Also, the Tmax in [11] turned out to be 4 h.

What is called Tmax is the time from dosing to the highest level. As usually defined, the half-life is how long it takes for the measured level to halve. The AUC is concentration integrated over time. The term CL/F denotes clearance divided by bioavailability, as obtained after extravascular dosing. The Cmax is the highest concentration seen after dosing.
